Measurements reported in patent US20030224978A1, “Compounds and methods for modulating apoptosis” (McGill University, priority 1996, published 2003).
Positions of bridges follow the written chain, without caps; N, C: chain ends. Residues, ends and D or L forms follow the SMILES beside them.

Key:
in vitro [1] = format: cell-based; settings: human
Method in brief: (§1)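 Cytotoxicity assessed by MTT assay and proliferation by ³H-thymidine incorporation, with peptides tested at concentrations up to 100 μM.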

in vitro [2] = format: cell-based; settings: human; remark: listed apart in the source
Method in brief: as §1

[3] = test system: angiogenesis in chick embryonic chorioallantoic membranes; assay: Chick chorioallantoic membrane angiogenesis assay; format: in vivo; settings: for inhibition of angiogenesis, in words: 3, 17, and 33 μg/mesh; for percent inhibition of angiogenesis: 24 hours
Procedure: The chick chorioallantoic membrane assay was used to assess the effects of cyclic peptides on angiogenesis (Iruela-Arispe et al., Molecular Biology of the Cell 6:327-343, 1995). Cyclic peptides were embedded in a mesh composed of vitrogen at concentrations of 3, 17, and 33 μg/mesh. The meshes were then applied to 12-day-old chick embryonic chorioallantoic membranes. After 24 hours, the effects of the peptides on angiogenesis were assessed by computer assisted morphometric analysis.
For each concentration of cyclic peptide, the percent inhibition of angiogenesis (relative to the level of angiogenesis in the absence of cyclic peptide) is provided. Assays were performed in the presence (+) or absence (−) of […] VEGF. For example, the cyclic peptide N-Ac-CHAVC-NH2 (SEQ ID NO:10) inhibited angiogenesis by 46%, 51%, and 51% at concentrations of 3, 17, and 33 μg/mesh, respectively.

in vitro [4] = format: cell-based; settings: human; remark: listed apart in the source
Method in brief: as §1

SKOV3 cells = assay: Disruption of human ovarian cancer cell (SKOV3) adhesion; format: cell-based; settings: for activity on SKOV3 cell adhesion: 0.01-1 mg/mL, up to 48 hours; for effect on SKOV3 cell adhesion: final concentration of 1 mg/mL media, within 24 hours
Source text: Within one representative cell adhesion assay, the addition of a modulating agent to cells that express a cadherin results in disruption of cell adhesion. A “cadherin-expressing cell,” as used herein, may be any type of cell that expresses at least one cadherin on the cell surface at a detectable level, using standard techniques such as immunocytochemical protocols (Blaschuk and Farookhi, Dev. Biol. 136:564-567, 1989). Cadherin-expressing cells include endothelial (e.g., bovine pulmonary artery endothelial cells), epithelial and/or cancer cells (e.g., the human ovarian cancer cell line SKOV3 (ATCC #HTB-77)). For example, such cells may be plated under standard conditions that permit cell adhesion in the presence and absence of modulating agent (e.g., 500 μg/mL). Disruption of cell adhesion may be determined visually within 24 hours, by observing retraction of the cells from one another.
The human ovarian cancer cell line SKOV3 (ATCC #HTB-77) expresses N-cadherin. SKOV3 cells were cultured in a modified MEM-based media containing 10% FCS. Cells were grown in T-250 culture flasks and maintained by periodic subculturing. Cyclic peptides were tested on cells grown in individual wells of 96-well culture dishes (surface area of each well was 0.32 cm^2). Cells were harvested from flasks and seeded at a density of 50,000 cells per well in 0.1 mL media containing the cyclic peptides at concentrations of 1, 0.1, or 0.01 mg/mL, or in the absence of cyclic peptide. Media control wells were also established. Cultures were evaluated periodically by microscopic examination under both bright field and phase contrast conditions. Cultures were maintained for 48 hours.

Compound	IC50 (in vitro [1]) [µM]	IC50 (in vitro [2]) [µM]	inhibition of angiogenesis, in words [3]	IC50 (in vitro [4]) [µM]	activity on SKOV3 cell adhesion (SKOV3 cells)	effect on SKOV3 cell adhesion (SKOV3 cells)	other results
CC[C@H](C)[C@@H]1NC(=O)[C@H](CC(=O)O)NC(=O)[C@H](C(C)C)NC(=O)[C@H](C)NC(=O)[C@H](Cc2c[nH]cn2)NC(=O)[C@H](C)NC(=O)[C@@H](NC(C)=O)CSSC[C@@H](C(N)=O)NC1=O (Ac-CAHAVDIC-NH2; disulfide 1-8)	> 100	> 100	inhibited angiogenesis significantly	> 100	inactive		
CC(=O)N[C@H]1CSSC[C@@H](C(N)=O)NC(=O)[C@H](CC(=O)O)NC(=O)[C@H](C(C)C)NC(=O)[C@H](C)NC(=O)[C@H](Cc2c[nH]cn2)NC(=O)[C@H](C)NC1=O [N-Ac-CAHAVDC-NH2, N-Ac-Cys-Ala-His-Ala-Val-Asp-Cys-NH2] (Ac-CAHAVDC-NH2; disulfide 1-7)	> 100	> 100	inhibited angiogenesis significantly	> 100	inactive		
CC(=O)N[C@H]1CSSC[C@@H](C(N)=O)NC(=O)[C@H](C(C)C)NC(=O)[C@H](C)NC(=O)[C@H](Cc2c[nH]cn2)NC1=O [N-Ac-CHAVC-NH2, N-Ac-Cys-His-Ala-Val-Cys-NH2]						disrupted SKOV3 cell adhesion	SKOV3 cell morphology (SKOV3 cells; 0.5 mg/ml, 24 hours): round-up; SKOV3 cell morphology (SKOV3 cells; 0.5 or 1 mg/ml, 24-48 hours): retract from one another and round-up
CC(=O)N[C@H]1CSSC[C@@H](C(N)=O)NC(=O)[C@H](CO)NC(=O)[C@H](C(C)C)NC(=O)[C@H](C)NC(=O)[C@H](Cc2c[nH]cn2)NC1=O [N-Ac-CHAVSC-NH2, N-Ac-Cys-His-Ala-Val-Ser-Cys-NH2] (Ac-CHAVSC-NH2; disulfide 1-6)	> 100	> 100	relatively inactive	> 100			percent inhibition of angiogenesis ([3]; 3 μg/mesh, absence (−) of 0.01 mM VEGF): 11%; percent inhibition of angiogenesis ([3]; 3 μg/mesh, presence (+) of 0.01 mM VEGF): 17%; percent inhibition of angiogenesis ([3]; 17 μg/mesh, absence (−) of 0.01 mM VEGF): 12%; percent inhibition of angiogenesis ([3]; 17 μg/mesh, presence (+) of 0.01 mM VEGF): 16%; percent inhibition of angiogenesis ([3]; 33 μg/mesh, absence (−) of 0.01 mM VEGF): 17%; percent inhibition of angiogenesis ([3]; 33 μg/mesh, presence (+) of 0.01 mM VEGF): 19%
CC(=O)N[C@H]1CSSC[C@@H](C(N)=O)NC(=O)[C@H](C(C)C)NC(=O)CNC(=O)[C@H](Cc2c[nH]cn2)NC1=O [N-Ac-CHGVC-NH2, reference compound]						had no affect on cell adhesion	
